Laboratory results from patent US20250205158A1, “BIODEGRADABLE LIPIDS AND FORMULATIONS FOR DELIVERY OF MRNA” (Massachusetts Institute of Technology, priority 2023, published 2025).
Like-named read-outs stand apart in the source and are kept apart here.

Tests used:
[1] = LNP characterization (diameter, PDI, % EE); assay type: physicochemical; conditions: LNP formulated with the named lipid
Experimental: Representative LNP Characterization Data. The diameter, polydispersity index (PDI), and % EE were characterized for various LNPs.
LNP characterization. Concentration of mRNA was determined using a Quant-IT Ribogreen assay. LNPs were diluted in either native TE buffer (ThermoFisher) or denaturing TE buffer+0.5% Triton-X 100 (Millipore-Sigma) to measure the “free” and total mRNA, respectively. 100 μL of these unknowns were added to a black 96-well plate. Separately, standard curves ranging from 2 ng/μL-0 ng/μL were prepared in each of these buffers and 100 μL were added to the same 96-well plate. Finally, Quant-IT Ribogreen reagent (ThermoFisher) was diluted 1:200 in TE buffer and 100 μL of this solution was added to each of the wells. The well plate was then mixed at 400 rpm with a plate shaker for 5 mins. and the fluorescence was read with an excitation/emission of 485/535. LNPs were measured in triplicate and standards were measured in duplicate. RNA concentration in each of the unknown wells was calculated by fitting the standard curves with a linear trendline. Encapsulation efficiency (% EE) was calculated according to: […]
Dynamic light scattering and zeta potential measurements were performed using a Malvern Zetasizer system. The reported diameter and PDI were obtained from the cumulants fit of the autocorrelation function. Zeta potential measurements were performed in 0.1×PBS, pH 7.4 and calculated using the Smoluchowski approximation.

PCSK9 gene = assay: CRISPR-Cas9 gene editing with mRNA LNPs; assay type: in vivo; conditions: dose of 3 mg/kg
Experimental: The ability of AMG1541 mRNA LNPs to induce CRISPR-Cas9 gene editing was also evaluated (FIGS. 9A-9D).

[2] = tested on: influenza A/Tasmania/503/2020 virus; assay: Hemagglutination inhibition (HAI) assay, neutralizing antibody titers after HA mRNA vaccination; assay type: in vivo, BALB/cJ mice
Experimental: To test this, a dose-response vaccination experiment ranging from […] was performed in female BALB/cJ mice. Neutralizing antibody titers were evaluated using the hemagglutination inhibition (HAI) assay. HAI titers are strongly correlated with vaccine protection and the assay is an FDA approved method for testing influenza vaccine efficacy^38,39 In agreement with the binding antibody titers, higher neutralizing […] were measured across all three tested doses: SM-102 only gave detectable neutralizing immunity at a 1 μg dose, while AMG1541 gave neutralizing immunity with as little was 10 ng of mRNA (FIG. 13H). Not only was AMG1541 able to generate neutralizing immunity at a very low dose, the binding and neutralizing antibody titers were equivalent in mice vaccinated with AMG1541 at a […] as those with SM-102 at a […] (FIG. 13H).
HAI Assay. HAI assays were performed by IBT bioservices. Viral titers were standardized by defining one HA unit as the amount of inactivated influenza A/Tasmania/503/2020 virus required to completely hemagglutinate an equal volume of 1% turkey red blood cells (TRBCs) (Lampire). Serum was heat inactivated at 56° C. then receptor destroying enzyme (RDE) (DENKA) was added to the serum and incubated at 37° C. for 20 hrs. RDE was then deactivated at 56° C. for 60 mins. Serum samples were then serially diluted in DPBS and 25 μL of diluted serum was added to a 96-well V bottom plate. Subsequently, four HA units of inactivated virus in 25 μL of DPBS were added to the diluted serum and incubated for 30 mins. at RT. 50 μL of a 1% (4×10^7 cells/mL) solution of turkey red blood cells (Lampire) was then added to the serum and virus mixture.

mice [3] = conditions: female BALB/cJ mice, 6 hours after the boost dose
mice [4] = assay type: in vivo, BALB/cJ and C57B1/6J mice; conditions: HA mRNA, dose=1 μg, day 35
mice [5] = tested on: mice
Experimental: Evaluation of the LNPs via intramuscular injection. The in vivo potency of the ionizable lipids was screened through intramuscular injection of LNPs loaded with mRNA encoding firefly luciferase protein. These LNPs were formulated with a molar composition of (35:16:46.5:2.5) using one of the synthesized ionizable lipids, DOPE as a helper lipid, cholesterol, and DMPE-PEG respectively. mRNA-loaded LNPs were intramuscularly administered in mice at a dose of 1 μg, and expression of luciferase protein was monitored at 6 hours via IVIS bioluminescent imaging (FIG. 3). […] Without wishing to be bound by theory, increased levels of protein expression may enhance the response to vaccination.
In Vitro and In Vivo Screening of AMG Lipid Library. Following synthesis, the mRNA delivery efficacy of the AMG lipids was evaluated through both in vitro and in vivo screens. To screen the first generation of AMG lipids (FIGS. 11B and 11C), firefly luciferase (FLuc) mRNA was encapsulated into LNPs using a previously reported formulation containing ionizable lipid, 1,2-dioleoyl-sn-glycero-3-phosphoethanolamine (DOPE), cholesterol, and 1,2-dimyristoyl-rac-glycero-3-methoxypolyethylene glycol-2000 (DMG-PEG).^19 C2C12 myoblast cells were treated with these LNPs and FLuc expression was evaluated at 24 hrs. (FIG. 16). […] Each of these batches was then injected IM into the quadriceps of mice, and expression was characterized via IVIS imaging (Screen 1, FIG. 11E).
AMG lipids for enhanced mRNA delivery and improved tolerability. A rational design approach was used to further vary the ionizable lipid structure to enhance the mRNA delivery and immunogenicity. […] The lipid tail structure was varied to promote efficient LNP self-assembly while simultaneously promoting endosomal membrane disruption.^18 Monounsaturated (G41-G44) or fully saturated (GC12-GC18) lipid tails were developed. […] Without wishing to be bound by any particular theory, tail length may impact membrane fusion and endosomal escape.^10,11
Next, the headgroup was further modified to further improve delivery. Headgroups play a multifunctional role including enhancing LNP-mRNA interactions, promoting membrane-LNP fusion and endosomal escape which all contribute to mRNA delivery.^23 A series of similar aza-crown ethers were used to further investigate structure-activity relationship and enhance mRNA delivery. These headgroups featured between three and eight nitrogens linked by varying length of methylene chains. Each of these headgroups were reacted with tail G41 to synthesize a next generation of AMG lipids, which were then formulated with FLuc mRNA and evaluated for mRNA delivery following IM administration in mice (FIG. 12B).

mice [6] = assay: tdTomato mRNA LNP expression in muscle and local draining lymph node (flow cytometry, IHC)
[7] = muscle, female BALB/cJ mice, IM

SMILES: CCCCCC/C=C\CCCC(=O)OCC(O)CN1CCN(CC(O)COC(=O)CCC/C=C\CCCCCC)CCN(CC(O)COC(=O)CCC/C=C\CCCCCC)CCN(CC(O)COC(=O)CCC/C=C\CCCCCC)CCN(CC(O)COC(=O)CCC/C=C\CCCCCC)CCN(CC(O)COC(=O)CCC/C=C\CCCCCC)CC1 (stereo not drawn) [AMG1541]
- EE % ([1]; Ribogreen assay): 86.0935%
- Diameter (nm) ([1]; dynamic light scattering): 85 nm
- PDI ([1]; dynamic light scattering): 0.107
- serum PCSK9 levels (PCSK9 gene): significant reduction in serum PCSK9 levels
- fold higher neutralizing titers than SM-102 ([2]; equivalent vaccine dose): 13 fold
- lowest mRNA dose giving neutralizing immunity ([2]; female BALB/cJ mice, dose-response vaccination): 10 ng
- fold lower dose giving similar protective immunity to SM-102 ([2]; mouse, in vivo): 100 fold
- fold higher serum IL-2 than in SM-102 vaccinated mice (mice [3]): 5 fold
- serum cytokine levels compared with SM-102 (mice [3]; except IL-2): comparable cytokine levels
- fold higher binding antibody endpoint titers than SM-102 (mice [4]; female BALB/cJ mice): 6.8 fold
- fold higher binding antibody titers than SM-102 (mice [4]; female C57B1/6J mice): 5.8 fold
- fold higher binding antibody endpoint titers than SM-102 (mice [4]; male BALB/cJ mice): 15.8 fold
- fold higher expression compared to AMG104 (mice [5]; IM, 1 μg, 6 hours): 4.5 fold
- fold higher in vivo mRNA transfection compared to SM-102 (mice [5]; IM, 1 μg, 6 hours): 3.5 fold
- fold improvement in expression over cKK-E12 (mice [5]; IM, 1 μg, 6 hours): 1.7 fold
- potency in intramuscular administration of mRNA compared to SM-102 and ALC-0315 (mice [5]; mouse, in vivo): equal or higher potency
- times higher in vivo mRNA delivery compared to FDA-approved counterparts (mice [5]; mouse, in vivo): approximately three
- expression in muscle fibers (IHC) (mice [6]; after IM administration): tdTomato was expressed in the muscle fibers
- protein expression in the LDLN relative to SM-102 (mice [6]; female BALB/cJ mice, IM): significantly higher protein expression in APCs
- fold higher tdTomato expression in DCs than SM-102 (mice [6]; [7]): 3.8 fold
- fold higher tdTomato expression in monocytes than SM-102 (mice [6]; [7]): 22 fold
